One experiment addresses T1, ANT Cys^160 (Rattus norvegicus, UniProt Q09073).
T1 construct: Rat liver sub-mitochondrial particles were prepared by sonication and differential centrifugation; from tissue; host or cells: rat liver sub-mitochondrial particles
T1 sequence (Q09073 1-298): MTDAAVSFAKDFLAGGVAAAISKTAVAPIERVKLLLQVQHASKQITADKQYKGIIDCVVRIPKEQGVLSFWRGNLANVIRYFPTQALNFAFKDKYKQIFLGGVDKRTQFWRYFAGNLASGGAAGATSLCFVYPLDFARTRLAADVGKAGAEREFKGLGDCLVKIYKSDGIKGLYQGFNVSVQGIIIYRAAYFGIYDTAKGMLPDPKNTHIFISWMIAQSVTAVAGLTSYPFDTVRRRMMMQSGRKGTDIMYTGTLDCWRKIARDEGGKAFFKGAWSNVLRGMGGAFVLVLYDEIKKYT
Put plainly: Labelling of ANT with eosin-5-maleimide (competition). Type of experiment: binding. The settings on record: 200 nmol GSAO per mg of protein, sub-mitochondrial particles. Here is the method:
Rat liver sub-mitochondrial particles were prepared by sonication and differential centrifugation according to Majima et al. (1998). The particles were suspended at 20 mg of protein per mL in 10 mM Tris, pH 7.2 buffer containing 250 mM sucrose and 0.2 mM EDTA and incubated without or with 200 nmol GSAO per mg of protein for 10 min at 25° C., followed by 20 nmol of eosin-5-maleimide per mg of protein for 1 min at 0° C. in the dark. The labelling was terminated by addition of 10 μmol of dithiothreitol per mg of protein. The proteins were resolved on 4-20% gradient iGels and the eosin-labelled ANT was visualised by UV transillumination using a Fluor-S™ Multilmager (Bio-Rad, Hercules, Calif.).

Experiment [1] has as its system BAE cells. Put plainly: Cell viability assay, attached cells (methylene blue), proliferating or growth-quiescent cells. The format is cell-based, bovine.
Experimental: BAE or HMEC-1 cells were seeded at a density of 10^4 cells per cell into 96 well plates and allowed to adhere overnight and then treated as indicated.
The subject of experiment [2] is BAE cells. Description: ATP assay (luciferin/luciferase). Type of experiment: cell-based, bovine. The settings on record: 150 μM GSAO, 24 h. Here is the method:
BAE cells in six-well culture plates were arrested for 24 h in 0.5% serum or left in 10% serum, then treated for 24 h with 0, 60 or 150 μM GSAO. The cells were washed once then resuspended in 0.4 mL PBS containing 0.3% bovine serum albumin. A 50 μl sample of cells was mixed with 50 μL water and 100 μL ATP releasing agent (Sigma) and ATP concentration was measured using a luciferin/luciferase ATP assay mix (Sigma). Light units were converted to ATP concentrations using an ATP standard in place of the 50 μL water. Cell number was counted using a Beckman Coulter Counter and mol of ATP was expressed per million cells.

In experiment [3] the test system is BAE cells. Description: Mitochondrial mass (nonyl acridine orange uptake). Type of experiment: cell-based, bovine. The settings on record: GSAO treatment 24 h, proliferating and growth-quiescent cells. Here is the method:
For measurements of superoxide levels with dihydroethidine, mitochondrial membrane potential with JC-1, mitochondrial mass with nonyl acridine orange, and apoptosis with annexin V, proliferating or growth-quiescent BAE cells were treated for 24 or 48 h with GSAO in six-well culture plates, then detached with trypsin/EDTA, washed once, and resuspended at 2×10^6 cells per mL in serum-free medium. Cells were then incubated for 15 min at room temperature with dihydroethidine (5 μM, Molecular Probes) or 30 min at room temperature with JC-1 (0.5 μg·mL^−1, Molecular Probes), annexin V-FITC (50 μl·mL^−1) (Pharmingen, La Jolla, Calif., USA), or acridine orange 10-nonyl bromide (5 μM, Molecular Probes). Cells were then washed once, resuspended in 0.5 mL serum-free medium, transferred to ice, and fluorescence was quantitated immediately by flow cytometry.

In the next experiment the test system is Rat liver mitochondria. The format is biochemical. The settings on record: 100 μM GSAO, 0-60 min.
The next experiment relates to CAM angiogenesis. Put plainly: Chick chorioallantoic membrane (CAM) angiogenesis assay. Type of experiment: in vivo. The settings on record: 5, 10 or 50 μg per pellet, 48 h. Here is the method:
Fertilised 3 day-old white Leghorn eggs (Spafas, Norwich, Conn.) were cracked, the embryos with intact yolks placed in 20×100 mm petri dishes and incubated for 3 days at 37° C. and 3% CO2 (Folkman, 1985). Methylcellulose (Fisher Scientific, Fair Lawn, N.J.) discs containing 5, 10 or 50 μg of either GSAA or GSAO were then applied to the CAM of individual embryos and incubated for 48 h at 37° C. and 3% CO2. The discs were made by desiccation of GSAA or GSAO in 10 μl of 0.45% methycellulose on teflon rods. The CAMs were observed using a stereomicroscope and scored for no obvious affect or inhibition of CAM angiogenesis as defined by avascular zones. On some occasions CAM blood vessels were injected with India ink and photographed.

The test system of another experiment is HT1080 tumours. Description: Primary tumour growth assay. The format is in vivo. The settings on record: 10 mg/kg/day s.c., SCID mice. Here is the method:
(§1) Female 7 to 9 week old SCID or C57Bl6/J mice were used (Massachusetts General Hospital, Boston, Mass.). Mice were held in groups of 3 to 5 at a 12 hour day and night cycle and were given animal chow and water ad libidum. SCID or C57Bl6/J mice were anaesthetised by inhalation of isoflurane, the dorsal skin shaved and cleaned with ethanol, and a suspension of 2.5×10^6 BxPC-3, HT1080 or LLC cells in 0.2 mL of PBS, or saline for LLC cells, was injected S.C. in the proximal midline. LLC cells were prepared according to O'Reilly et al. (1997). Tumour volume was calculated using the relationship, a·b^2·0.52, where a is the longest and b the shortest diameter.

The test system of the next experiment is LLC tumours. Description: Primary tumour growth assay. Type of experiment: in vivo. The settings on record: 10 mg/kg/day s.c., C57Bl6/J mice. Here is the method: as §1
Experiment [4] relates to BAE cells. Put plainly: Cell proliferation and viability assay (MTT). The format is cell-based, bovine. The settings on record: 10% serum, 48 h; read-out: IC50 for proliferation arrest of BAE cells. The procedure:
BAE or human pancreatic carcinoma BxPC-3 cells were seeded at a density of 10^3 cells per well into 96 well plates in DMEM containing 10% foetal bovine serum and allowed to adhere for 24 h. Cells were washed and incubated with DMEM containing 10% foetal bovine serum and GSAO or o-GSAO and cultured for a further 48 h. Some BAE cells were arrested for 24 h in medium containing 0.25% serum and cultured for a further 48 h in medium containing 0.25% or 10% serum, in the presence of GSAO or o-GSAO. Viable attached cells were determined using MTT.

Consider one molecule from patent US9353152B2, “Induction of the mitochondrial permeability transition” (NewSouth Innovations Pty Limited, priority 2002, dated 2016).

Molecules are shown by their SMILES.

Regarding `N[C@@H](CCC(=O)N[C@@H](CSCC(=O)Nc1ccc([As]=O)cc1)C(=O)NCC(=O)O)C(=O)O` (stereo partly drawn) [GSAO, 4-(N—(S-glutathionylacetyl)amino)-phenylarsenoxide], the “competition for eosine-maleimide alkylation of ANT Cys^160” value at ANT Cys^160 is “competed”. In addition, in the experiment on BAE cells [1], the “effect on viability of growth-quiescent BAE cells” value is “little effect”. Further, the “cellular ATP levels in proliferating BAE cells” value in the experiment on BAE cells [2] is “reduced ATP levels in proliferating cells to that of growth-quiescent cells”. Further, the mitochondrial mass entry in the experiment on BAE cells [3] is given as “unchanged”. Moreover, the “release of Cytochrome C into the medium” value in the experiment on Rat liver mitochondria was “triggered time-dependent release”. The “inhibition of CAM angiogenesis (avascular zones)” value with CAM angiogenesis was “inhibited CAM angiogenesis in a concentration-dependent manner”. In addition, the “inhibition of the rate of tumour growth” value is listed as around 70% with HT1080 tumours and around 50% with LLC tumours. Besides, the IC50 in the experiment with BAE cells [4] turned out to be 8.3 ± 2.1 µM.
